# Patent publication US20180110754A1, “CENICRIVIROC FOR THE TREATMENT OF FIBROSIS” (Tobira Therapeutics, Inc., priority 2015, published 2018)
# What was measured:
# [1] = Study 201: safety and tolerability; type: in vivo, human
# Procedure: Participants were required to be antiretroviral treatment-experienced, CCR5 antagonist-naive, with HIV-1 RNA levels of at least 5000 copies/mL and CD4+ cell counts of at least 250 cells/mm^3 was performed.
# [2] = target: T1, CCR2 (Homo sapiens, UniProt P41597); assay: MCP-1-induced CCR2 internalization / CCR2 receptor occupancy on monocytes (flow cytometry); type: cell-based
# T1 construct: endogenous in cells; host or cells: monocytes within PBMCs from HIV+ and HIV- subjects
# T1 sequence (P41597 1-360 isoform P41597-2): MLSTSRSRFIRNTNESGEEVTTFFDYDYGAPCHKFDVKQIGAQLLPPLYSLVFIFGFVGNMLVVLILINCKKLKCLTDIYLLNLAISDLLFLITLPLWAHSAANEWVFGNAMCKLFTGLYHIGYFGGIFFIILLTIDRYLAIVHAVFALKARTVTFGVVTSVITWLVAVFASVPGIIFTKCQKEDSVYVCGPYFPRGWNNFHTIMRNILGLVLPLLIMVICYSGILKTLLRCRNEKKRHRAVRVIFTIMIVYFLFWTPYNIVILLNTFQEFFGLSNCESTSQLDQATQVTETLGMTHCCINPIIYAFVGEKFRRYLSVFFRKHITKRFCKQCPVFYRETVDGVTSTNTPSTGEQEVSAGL
# Procedure: The capacity of each drug to inhibit CCR5 or CCR2 internalization was evaluated. Cell-surface expression of CCR5 and CCR2 was assessed by flow cytometry, and fluorescence values were converted into molecules of equivalent soluble fluorescence (MESF).
# [3] = target: CCR7 (Homo sapiens, UniProt P32248); assay: Inhibition of ligand binding to CCR7
# [4] = test system: APAP-induced acute liver injury; assay: Acetaminophen (APAP)-induced acute liver injury in mice; type: in vivo, C57BL/6J mice
# Procedure: Methods: […] […] Liver injury and immune cell phenotypes were analyzed. For mechanistic studies, monocyte-derived macrophage subsets and resident macrophages (Kupffer cells) were sorted by FACS from injured livers and subjected to array-based Nanostring gene expression analysis. […] The human counterparts of both agents are currently tested in phase II trials for different indications (diabetic nephropathy or NASH, respectively).
# [5] = test system: HIV-1 BaL; assay: Extracellular virus (viral RNA, p24) in culture fluids of PM-1 cells exposed to HIV-1 BaL; type: cell-based; conditions: 4 hrs post-infection, CVC 20 nM, MVC 50 nM
# Text: Cells. PM-1 cells that express CD4, CCR5, and CXCR4 were maintained in RPMI-1640 medium containing 10% fetal bovine serum (R10 medium) at 37C, 5% CO2. 293T cells used for transfection were maintained in DMEM at 10% FBS, L-glutamine, and antibiotics (D10 medium) at 37C, 5% CO2. Virus Stocks. HIV-1 BaL virus was produced by transfecting 293T cells with the plasmid pWT/BaL. Lipofectamine 2000 was used as a transfection agent. Culture supernatants were collected at 48 hrs post-transfection, filtered through a 0.45 μm pore filter, and treated with 50 units of benzonase per ml of virus stock for 20 minutes at 37C to remove contaminating plasmid DNA. Virus stocks were frozen at −80C to halt benzonase activity. Benzonase-treated virus stocks were propagated in cord blood mononuclear cells (CBMCs). CBMCs were stimulated for 72 h with phytohemagluttinin (PHA-M) in R10 medium prior to infection with HIV-1 BaL. The viral amplification culture was subsequently grown in R10 supplemented with interleukin 2 (IL-2) and incubated at 37C, 5% CO2.
# Both drugs were incubated with PM-1 cells for 1 hr at 37 C prior to the addition of virus. 500 ng of p24 antigen of HIV-1 BaL were incubated per 5×10^5 cells in 1 ml of R10 media. Virus only controls, described as “no cell” in the text, were used to measure viral decay. Viral adsorption was measured in the no-drug controls, whereby 500 ng of p24 Ag of HIV-1 Bal were added per 5×10^5 PM-1 cells that were pre-incubated at 37 C for 1 hr in the absence of drug treatment. Each drug treatment and control was performed in duplicate. Viral RNA was extracted from 140 μl of supernatant fluid using the QIAamp Viral RNA mini kit according to manufacturer's instructions. Samples were stored at −80 C until analysis. Supernatant viral loads were measured using quantitative real-time reverse transcription PCR (qRT-PCR) with the primers US1SSF (5′-[…]-3′), US1SSR (5′-[…]-3′) and US1SS probe (5′-(FAM) […]) and the Invitrogen qRT-PCR Supermix Kit. Cycling parameters were: 50° C. for 15 minutes, 95° C. for 10 minutes, followed by 50 cycles of 95° C. for 15 seconds, and 60° C. for 1 minute. All values are the result of replicate testing over 2 independent experiments. RNA copy number was quantified by use of 10-fold serial dilutions of pBaL/wt to generate standard curves for each assay and calibrated against samples with known copy numbers from previous studies.
# [6] = Tissue distribution in rodents; type: in vivo
# [7] = test system: CC14-induced acute liver injury; assay: CC14-induced acute liver injury in mice; type: in vivo, C57BL/6J mice; conditions: CVC 100 mg/kg oral, 36h after CC14; vehicle 5.49%±0.49
# Procedure: Liver injury and immune cell phenotypes were analyzed. For mechanistic studies, monocyte-derived macrophage subsets and resident macrophages (Kupffer cells) were sorted by FACS from injured livers and subjected to array-based Nanostring gene expression analysis.
# [8] = Phase 1 studies in healthy volunteer subjects; type: in vivo, human; conditions: single doses up to 800 mg, multiple daily doses up to 200 mg for 10 days
# Text: The frequency and magnitude of transaminase elevations observed across these studies was consistent with the pattern described for Phase 1 studies in scientific literature. […] In both studies and at all doses CVC presented a favorable adverse event profile. […] No clinically relevant changes in ECG parameters or changes for any vital sign parameters were observed during the 48-week treatment period. No apparent dose or exposure relationship for adverse events, laboratory abnormalities (including CPK, ALT, AST and bilirubin elevations) or dose-limiting toxicities were observed.
# [9] = test system: HIV-1; assay: Ex vivo intracellular HIV DNA qPCR in PBMCs of Study 202 participants; design: species or system human; conditions: EFV 600 mg, week 24
# Procedure: Intracellular DNA qPCR. Total DNA was extracted, quantified, and stored at −80 C.
# The Mann-Whitney test was used to analyze in vitro intracellular HIV DNA levels for all three treatment groups. All data were analyzed using Prism 5 software.
# Sequence of CCR7 (P32248 25-378): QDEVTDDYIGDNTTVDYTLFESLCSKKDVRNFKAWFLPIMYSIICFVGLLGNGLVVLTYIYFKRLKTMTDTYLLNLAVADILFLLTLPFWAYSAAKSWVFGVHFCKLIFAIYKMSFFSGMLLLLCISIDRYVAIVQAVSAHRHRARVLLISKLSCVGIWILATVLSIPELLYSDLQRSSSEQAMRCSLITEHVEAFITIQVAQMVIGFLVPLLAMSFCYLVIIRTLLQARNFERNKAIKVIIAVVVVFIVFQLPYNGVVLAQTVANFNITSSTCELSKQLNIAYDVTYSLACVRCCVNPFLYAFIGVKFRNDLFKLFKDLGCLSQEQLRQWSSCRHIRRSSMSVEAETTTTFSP
smiles,measurement,setting,value
"CCCCOCCOc1ccc(-c2ccc3c(c2)/C=C(/C(=O)Nc2ccc([S@@+]([O-])Cc4cncn4CCC)cc2)CCCN3CC(C)C)cc1 [CVC, (S)-8-[4-(2-Butoxyethoxy)phenyl]-1-isobutyl-N-(4-{[(1-propyl-1H-imidazol-5-yl)methyl]sulfinyl}phenyl)-1,2,3,4-tetrahydro-1-benzazocine-5-carboxamide]",Subjects with ALT and/or AST elevations (all Grade 1),[1]; 25 mg,2 subjects
same,Subjects with ALT and/or AST elevations (all Grade 1),[1]; 50 mg,2 subjects
same,Subjects with ALT and/or AST elevations (all Grade 1),[1]; 100 mg,1 subject
same,Subjects with ALT and/or AST elevations (all Grade 1),[1]; 150 mg,1 subject
same,Tolerability,"[1]; 25-150 mg once daily, 10 days",generally well tolerated
same,Treatment-emergent AE: diarrhea,"[1]; Study 201, all subjects",16.7%
same,Treatment-emergent AE: fatigue,"[1]; Study 201, all subjects",11.0%
same,Treatment-emergent AE: headache,"[1]; Study 201, all subjects",14.8%
same,Treatment-emergent AE: nausea,"[1]; Study 201, all subjects",18.5%
same,Grade 2-4 elevations in ALT or AST,[1]; during the study,No Grade 2-4 elevations
same,Concentration at which saturation of monocyte CCR2 was reached,[2],6 nM
same,Concentration required to reach >80% CCR2 receptor occupancy (average),[2],1.8 nM
same,receptor occupancy at 0.006 µM,[2]; at 6 nM,~98%
same,CCR2 cell-surface expression,[2]; in the absence of MCP-1,induced CCR2 internalization and decreased cell-surface expression on monocytes
same,Inhibition of ligand binding to CCR7,[3],did not inhibit
same,Reduction of Ly6C+ monocyte-derived macrophages in liver,[4]; CC14 and APAP models,83-84%
same,Pro-inflammatory Ly6C+ monocytes in blood,"[4]; CC14 and APAP models, p<0.01",significantly reduced
same,Reduction in ALT,[4]; CVC 100 mg/kg oral,75%
same,Reduction in necrotic area fraction,[4]; CVC 100 mg/kg oral,61%
same,Ly6C+ monocyte-derived macrophages in liver (% of liver leukocytes),"[4]; CVC 100 mg/kg oral, 12h after APAP, vehicle 6.01%±0.66",0.95%±0.11
same,Necrotic area fraction,"[4]; CVC 100 mg/kg oral, vehicle 27.9%±4.05",10.9%±3.50
same,Monocyte accumulation in APAP-injured livers,[4]; WT mice,significantly reducing monocyte accumulation
same,Protection from liver damage (ALT levels),"[4]; WT mice, p<0.05 for mNOX, p<0.01 for CVC",significant protection from liver damage
same,p24 antigen level in culture fluids,[5]; baseline 506 ng/ml,192 ng/mL
same,Viral RNA in culture fluids,[5]; baseline 1.19×10^10,1.26×10^10 copies/ml
same,Tissue distribution,[6],"high distribution in the liver, mesenteric lymph node, and intestine"
same,Ly6C+ monocyte-derived macrophages in liver (% of liver leukocytes),[7],0.95%±0.14
same,Tolerability,[8],generally well tolerated
"O=C1Nc2ccc(Cl)cc2[C@@](C#CC2CC2)(C(F)(F)F)O1 [EFV, efavirenz, reference compound]","Full-length intracellular HIV DNA, mean fold-change from baseline",[9],0.825 fold
same,"Strong-stop intracellular HIV DNA, mean fold-change from baseline",[9],1.01 fold
